Source: ChEMBL document CHEMBL1201862, “PubChem BioAssay data set” (2004)
Calls of active or inactive are those of the source.

Experiments:
Protein Tat = Protein Tat (Human immunodeficiency virus type 1 group M subtype B (isolate HXB2)(HIV-1), UniProt P04608); assay type: functional;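 note: tat binding to TAR RNA read out by fluorescence polarization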
[1] = target: Luciferin 4-monooxygenase (Photinus pyralis, UniProt P08659); assay: Counter Screen for Luciferase-based Assay Positives. [Related pubchem assays: 620, 618, 411 ]
HT-1080 = assay: HT1080 cell viability loss – fluorescence readout (AID 620); assay type: functional, cell-based; conditions: Homo sapiens
[2] = Luminescence-based cell-based high throughput dose response assay to identify activators of the DAF-12 from the parasite S. stercoralis (ssDAF-12).; assay type: functional
[3] = target: T1, Oxysterols receptor LXR-beta (Homo sapiens, UniProt P55055); assay: LXR agonists, Gal4 luciferase reporter, dose response, counter-screen for ssDAF-12 agonist project, cell-based, luminescence, HEK293, S. stercoralis campaign (AID 720737); assay type: functional; conditions: read-out: IC50 (the source's name)
T1 sequence (P55055 whole entry): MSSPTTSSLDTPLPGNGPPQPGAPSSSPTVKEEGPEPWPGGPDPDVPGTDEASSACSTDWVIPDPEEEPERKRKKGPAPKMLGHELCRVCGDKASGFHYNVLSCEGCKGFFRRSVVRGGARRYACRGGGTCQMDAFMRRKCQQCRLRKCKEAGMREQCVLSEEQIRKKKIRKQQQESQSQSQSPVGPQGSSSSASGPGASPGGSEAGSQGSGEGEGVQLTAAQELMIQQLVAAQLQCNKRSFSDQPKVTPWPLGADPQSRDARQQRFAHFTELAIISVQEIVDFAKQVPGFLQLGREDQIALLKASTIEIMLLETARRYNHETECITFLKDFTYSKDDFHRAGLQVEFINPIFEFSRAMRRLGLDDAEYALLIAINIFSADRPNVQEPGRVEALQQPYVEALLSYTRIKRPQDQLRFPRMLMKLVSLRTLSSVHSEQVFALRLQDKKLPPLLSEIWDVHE

[4] = target: T1, Oxysterols receptor LXR-beta; assay type: functional, cell-based
[5] = target: T2, E3 ubiquitin-protein ligase XIAP (Homo sapiens, UniProt P98170); assay: Counter Screen using XIAP-Bir3 for Chemical Antagonists of Bir1/2 domains of IAP-family anti-apoptotic proteins. [Related pubchem assays (depositor defined):AID1018, AID1449, AID1514, AID1638, AID1749, AID1750, AID488957, AID488963]
[6] = target: T2, E3 ubiquitin-protein ligase XIAP; assay: small molecules displacing peptide from XIAP – biochemical, IAP family, fluorescence polarization (AID 1018); assay type: functional
[7] = target: Glucose-6-phosphate 1-dehydrogenase (Homo sapiens, UniProt P11413); assay: inhibition of Homo sapiens G6PD, dose series – biochemical, fluorescence, selectivity assay for P. falciparum G6PD inhibitor project, dose response (AID 504792); assay type: functional
[8] = target: Eukaryotic translation initiation factor 4E (Mus musculus, UniProt P63073); assay: blockers of eIF4G binding by eIF4E – biochemical, TR-FRET, dose response (AID 855); assay type: functional;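 note: potency for disrupting eIF4E binding to eIF4GI seen as loss of FRET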
Hexokinase HKDC1 = target: T3, Hexokinase HKDC1 (Homo sapiens, UniProt Q2TB90); assay: inhibition of HKDC1 glucose phosphorylation – biochemical, W721R variant, dose response (AID 504729); assay type: functional
T3 sequence (Q2TB90 whole entry): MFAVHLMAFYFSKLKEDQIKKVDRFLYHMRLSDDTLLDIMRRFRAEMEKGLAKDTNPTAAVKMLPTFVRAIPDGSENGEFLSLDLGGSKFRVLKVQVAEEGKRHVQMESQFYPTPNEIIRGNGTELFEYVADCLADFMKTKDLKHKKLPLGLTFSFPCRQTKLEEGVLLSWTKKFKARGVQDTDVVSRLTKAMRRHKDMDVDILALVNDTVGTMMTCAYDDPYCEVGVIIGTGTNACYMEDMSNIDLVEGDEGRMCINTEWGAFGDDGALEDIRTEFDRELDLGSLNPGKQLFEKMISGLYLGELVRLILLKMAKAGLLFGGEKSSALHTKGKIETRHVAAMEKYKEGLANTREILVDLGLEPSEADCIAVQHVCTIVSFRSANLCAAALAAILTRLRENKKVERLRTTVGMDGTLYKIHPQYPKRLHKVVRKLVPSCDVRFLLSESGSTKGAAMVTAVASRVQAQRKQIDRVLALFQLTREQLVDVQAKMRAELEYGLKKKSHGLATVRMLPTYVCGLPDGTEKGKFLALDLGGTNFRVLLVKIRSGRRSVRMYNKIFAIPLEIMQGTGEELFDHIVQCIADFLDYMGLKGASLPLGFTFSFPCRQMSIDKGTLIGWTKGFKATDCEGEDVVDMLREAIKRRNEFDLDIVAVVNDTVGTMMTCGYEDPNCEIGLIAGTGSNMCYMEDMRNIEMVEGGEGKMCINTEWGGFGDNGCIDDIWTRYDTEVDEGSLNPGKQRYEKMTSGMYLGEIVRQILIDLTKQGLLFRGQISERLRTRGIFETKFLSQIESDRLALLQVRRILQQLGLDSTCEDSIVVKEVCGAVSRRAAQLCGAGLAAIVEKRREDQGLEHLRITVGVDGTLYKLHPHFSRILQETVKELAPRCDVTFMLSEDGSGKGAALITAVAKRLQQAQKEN

[9] = target: T4, Replicative DNA helicase DnaB (Mycobacterium tuberculosis, UniProt P9WMR3); assay: DnaB intein splicing inhibitors, dose response, biochemical, cell-free fluorescence (AID 449749); assay type: functional
T4 sequence (P9WMR3 whole entry): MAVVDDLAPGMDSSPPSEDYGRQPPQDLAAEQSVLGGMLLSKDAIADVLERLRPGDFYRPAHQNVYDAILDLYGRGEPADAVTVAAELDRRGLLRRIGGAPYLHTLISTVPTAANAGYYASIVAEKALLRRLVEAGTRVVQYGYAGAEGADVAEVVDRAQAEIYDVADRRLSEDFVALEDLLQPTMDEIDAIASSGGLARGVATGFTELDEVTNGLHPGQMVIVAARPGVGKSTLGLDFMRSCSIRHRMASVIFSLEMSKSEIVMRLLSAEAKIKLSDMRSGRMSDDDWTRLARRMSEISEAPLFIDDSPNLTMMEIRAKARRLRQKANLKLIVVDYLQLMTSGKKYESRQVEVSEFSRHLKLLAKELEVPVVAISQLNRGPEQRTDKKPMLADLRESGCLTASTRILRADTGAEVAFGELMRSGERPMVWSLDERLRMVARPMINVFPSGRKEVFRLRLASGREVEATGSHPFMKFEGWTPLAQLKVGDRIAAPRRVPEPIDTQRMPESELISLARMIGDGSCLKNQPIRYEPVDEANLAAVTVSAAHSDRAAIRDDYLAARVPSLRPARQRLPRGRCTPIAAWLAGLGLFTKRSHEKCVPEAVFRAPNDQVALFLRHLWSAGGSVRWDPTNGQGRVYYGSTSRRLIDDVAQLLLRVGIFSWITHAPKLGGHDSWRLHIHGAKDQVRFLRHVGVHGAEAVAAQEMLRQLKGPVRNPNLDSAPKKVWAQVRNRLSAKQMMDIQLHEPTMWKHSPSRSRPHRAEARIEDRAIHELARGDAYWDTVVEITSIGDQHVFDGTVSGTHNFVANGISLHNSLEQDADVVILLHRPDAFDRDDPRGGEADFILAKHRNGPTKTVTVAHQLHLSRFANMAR

Protein RecA = target: T5, Protein RecA (Mycobacterium tuberculosis, UniProt P9WHJ3); assay: Fluorescence Cell-Free Homogeneous Dose Retest to Identify Inhibitors of RecA-Intein Splicing Activity. [Related pubchem assays (depositor defined):AID2097, AID2223, AID489010, AID492950]; assay type: functional
T5 sequence (P9WHJ3 whole entry): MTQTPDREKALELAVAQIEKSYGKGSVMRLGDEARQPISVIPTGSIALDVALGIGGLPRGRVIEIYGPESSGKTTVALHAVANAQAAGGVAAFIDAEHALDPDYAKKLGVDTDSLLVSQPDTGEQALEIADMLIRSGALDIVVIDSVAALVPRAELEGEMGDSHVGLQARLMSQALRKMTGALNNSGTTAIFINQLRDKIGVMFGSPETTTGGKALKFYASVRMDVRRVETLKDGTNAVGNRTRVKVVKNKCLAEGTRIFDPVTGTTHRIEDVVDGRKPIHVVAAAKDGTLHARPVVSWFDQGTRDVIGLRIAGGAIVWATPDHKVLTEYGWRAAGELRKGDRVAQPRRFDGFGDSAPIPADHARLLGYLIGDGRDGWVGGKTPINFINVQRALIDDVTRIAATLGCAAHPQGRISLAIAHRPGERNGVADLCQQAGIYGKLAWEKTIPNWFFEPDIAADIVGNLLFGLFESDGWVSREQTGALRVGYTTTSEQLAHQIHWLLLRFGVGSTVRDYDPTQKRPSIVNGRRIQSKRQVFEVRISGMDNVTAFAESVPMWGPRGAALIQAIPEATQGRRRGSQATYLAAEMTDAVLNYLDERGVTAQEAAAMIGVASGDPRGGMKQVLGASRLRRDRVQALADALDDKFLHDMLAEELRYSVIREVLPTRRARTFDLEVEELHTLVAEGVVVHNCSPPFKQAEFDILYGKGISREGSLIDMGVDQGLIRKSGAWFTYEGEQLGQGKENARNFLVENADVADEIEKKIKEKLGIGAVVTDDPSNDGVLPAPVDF

Genome polyprotein = Genome polyprotein (dengue virus type 2, UniProt P29990); assay: flavivirus cap methylation enzyme inhibition – biochemical, confirmation dose response, primary screen (AID 588689); assay type: functional
[10] = target: T6, Histone-lysine N-methyltransferase NSD2 (Homo sapiens, UniProt O96028); assay type: biochemical
T6 sequence (O96028 whole entry): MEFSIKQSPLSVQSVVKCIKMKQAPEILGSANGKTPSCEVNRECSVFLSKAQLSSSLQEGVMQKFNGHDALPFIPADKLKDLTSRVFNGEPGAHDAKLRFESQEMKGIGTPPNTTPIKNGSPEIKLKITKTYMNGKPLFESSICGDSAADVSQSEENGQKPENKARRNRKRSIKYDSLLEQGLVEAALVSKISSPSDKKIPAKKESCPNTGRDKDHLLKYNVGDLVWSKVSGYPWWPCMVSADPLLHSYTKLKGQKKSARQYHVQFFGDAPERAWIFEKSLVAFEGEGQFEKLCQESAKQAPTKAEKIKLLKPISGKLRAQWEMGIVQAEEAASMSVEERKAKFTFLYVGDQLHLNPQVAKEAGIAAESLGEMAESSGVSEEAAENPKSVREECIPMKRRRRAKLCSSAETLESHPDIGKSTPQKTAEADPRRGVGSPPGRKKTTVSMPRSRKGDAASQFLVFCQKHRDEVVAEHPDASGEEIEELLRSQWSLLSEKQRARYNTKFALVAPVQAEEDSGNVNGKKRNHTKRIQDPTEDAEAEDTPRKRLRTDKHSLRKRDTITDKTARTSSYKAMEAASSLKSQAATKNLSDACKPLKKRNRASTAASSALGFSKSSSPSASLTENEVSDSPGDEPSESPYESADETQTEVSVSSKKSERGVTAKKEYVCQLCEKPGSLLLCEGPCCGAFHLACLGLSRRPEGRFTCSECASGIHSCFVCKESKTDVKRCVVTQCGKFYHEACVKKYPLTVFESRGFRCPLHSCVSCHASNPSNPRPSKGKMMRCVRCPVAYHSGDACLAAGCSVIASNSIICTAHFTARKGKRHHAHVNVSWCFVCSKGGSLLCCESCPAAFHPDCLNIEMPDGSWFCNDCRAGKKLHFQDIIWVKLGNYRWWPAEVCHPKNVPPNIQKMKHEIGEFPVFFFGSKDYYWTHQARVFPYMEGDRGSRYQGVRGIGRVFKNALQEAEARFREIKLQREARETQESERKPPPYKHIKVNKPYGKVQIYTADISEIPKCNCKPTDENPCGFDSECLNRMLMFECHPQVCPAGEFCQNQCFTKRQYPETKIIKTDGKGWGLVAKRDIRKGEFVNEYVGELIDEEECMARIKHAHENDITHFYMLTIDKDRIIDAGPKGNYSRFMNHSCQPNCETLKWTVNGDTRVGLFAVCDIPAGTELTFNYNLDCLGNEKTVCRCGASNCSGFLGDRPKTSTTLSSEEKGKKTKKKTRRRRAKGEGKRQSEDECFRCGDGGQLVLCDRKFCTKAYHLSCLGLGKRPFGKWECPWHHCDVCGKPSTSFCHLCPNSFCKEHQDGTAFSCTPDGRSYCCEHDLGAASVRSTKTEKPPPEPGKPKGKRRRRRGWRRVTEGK

[11] = growth inhibition of yeast DHODH-expressing 3D7 parasites – SYBR Green, dry powder samples, dose response (AID 1159570); assay type: functional, cell-based;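 note: parasite growth measured after 72 hours of compound exposure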
[12] = toxicity to human HepG2 hepatoma cells – cell-based, plate reader, dry powder samples, cytotoxicity control, dose response (AID 1159569); assay type: functional;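 note: inhibitor potency with signal falling toward the positive control level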
[13] = P. falciparum Dd2 growth inhibitors, dose response, SYBR Green, cherry-picked samples (AID 1159567); assay type: functional, cell-based
[14] = Dd2 malaria parasite growth inhibition potency – SYBR Green, dry powder samples, dose response (AID 1159566); assay type: functional, cell-based;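 note: potency for growth inhibition with lower SYBR green DNA signal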
[15] = toxicity to human hepatoma HepG2 cells – cell-based, cherry-picked samples, cytotoxicity control, dose response (AID 1159577); assay type: functional
[16] = growth inhibition of PfATP4-mutant resistant parasites – NITD609-resistant line, SYBR Green, dry powder, dose response (AID 1159571); assay type: functional, cell-based;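 note: parasites synchronized at ring stage by sorbitol before testing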

T2 sequence (P98170 whole entry): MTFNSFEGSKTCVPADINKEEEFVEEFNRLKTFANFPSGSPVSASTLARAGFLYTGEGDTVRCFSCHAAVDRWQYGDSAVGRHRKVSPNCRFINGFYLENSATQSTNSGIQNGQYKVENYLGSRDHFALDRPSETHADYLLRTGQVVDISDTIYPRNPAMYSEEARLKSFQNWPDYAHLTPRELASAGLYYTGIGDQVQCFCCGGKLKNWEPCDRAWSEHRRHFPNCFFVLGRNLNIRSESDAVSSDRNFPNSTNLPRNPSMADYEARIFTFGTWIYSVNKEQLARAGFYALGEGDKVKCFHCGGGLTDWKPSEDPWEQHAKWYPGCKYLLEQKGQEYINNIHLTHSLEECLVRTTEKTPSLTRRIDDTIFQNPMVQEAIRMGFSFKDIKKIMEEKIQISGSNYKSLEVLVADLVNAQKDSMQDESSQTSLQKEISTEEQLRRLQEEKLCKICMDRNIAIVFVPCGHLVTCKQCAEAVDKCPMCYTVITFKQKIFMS
Sequence of Protein Tat (P04608 whole entry): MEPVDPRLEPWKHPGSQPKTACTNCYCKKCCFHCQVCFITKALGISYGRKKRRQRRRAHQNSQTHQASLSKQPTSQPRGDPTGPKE
Sequence of Luciferin 4-monooxygenase (P08659 whole entry): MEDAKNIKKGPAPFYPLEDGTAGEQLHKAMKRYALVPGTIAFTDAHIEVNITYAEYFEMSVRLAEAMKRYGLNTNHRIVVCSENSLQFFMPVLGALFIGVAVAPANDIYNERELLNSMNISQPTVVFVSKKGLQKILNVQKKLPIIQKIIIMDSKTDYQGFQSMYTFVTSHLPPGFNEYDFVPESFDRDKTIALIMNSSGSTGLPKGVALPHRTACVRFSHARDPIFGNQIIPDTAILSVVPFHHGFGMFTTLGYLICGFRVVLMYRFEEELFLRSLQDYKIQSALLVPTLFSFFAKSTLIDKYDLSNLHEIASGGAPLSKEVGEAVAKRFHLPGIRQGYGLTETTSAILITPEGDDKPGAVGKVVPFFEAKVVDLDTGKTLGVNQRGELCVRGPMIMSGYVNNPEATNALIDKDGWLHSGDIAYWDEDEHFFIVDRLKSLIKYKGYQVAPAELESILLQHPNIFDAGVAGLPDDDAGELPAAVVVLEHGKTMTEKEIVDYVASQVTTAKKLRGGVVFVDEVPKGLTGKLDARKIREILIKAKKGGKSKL
Sequence of Glucose-6-phosphate 1-dehydrogenase (P11413 whole entry): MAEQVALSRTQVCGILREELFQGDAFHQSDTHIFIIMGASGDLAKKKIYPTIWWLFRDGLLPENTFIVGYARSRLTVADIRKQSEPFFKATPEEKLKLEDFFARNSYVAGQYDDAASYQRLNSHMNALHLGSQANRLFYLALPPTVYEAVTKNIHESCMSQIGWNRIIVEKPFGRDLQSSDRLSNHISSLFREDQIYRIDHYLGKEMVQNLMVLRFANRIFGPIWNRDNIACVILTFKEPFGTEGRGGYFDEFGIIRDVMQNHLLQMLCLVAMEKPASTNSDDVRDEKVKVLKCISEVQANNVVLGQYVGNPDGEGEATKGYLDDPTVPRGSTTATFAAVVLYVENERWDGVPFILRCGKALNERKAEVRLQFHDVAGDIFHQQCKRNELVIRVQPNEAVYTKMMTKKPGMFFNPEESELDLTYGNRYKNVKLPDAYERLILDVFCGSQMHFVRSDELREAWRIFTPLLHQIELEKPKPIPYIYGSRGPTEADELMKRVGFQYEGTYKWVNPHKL
Sequence of Eukaryotic translation initiation factor 4E (P63073 whole entry): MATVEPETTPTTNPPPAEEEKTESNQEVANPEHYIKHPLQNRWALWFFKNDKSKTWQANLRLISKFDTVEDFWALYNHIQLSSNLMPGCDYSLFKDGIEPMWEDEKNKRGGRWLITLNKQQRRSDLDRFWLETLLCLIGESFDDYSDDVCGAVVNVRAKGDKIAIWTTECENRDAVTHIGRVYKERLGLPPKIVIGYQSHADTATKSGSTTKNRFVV
Sequence of Genome polyprotein (P29990 2492-3391 limits assumed): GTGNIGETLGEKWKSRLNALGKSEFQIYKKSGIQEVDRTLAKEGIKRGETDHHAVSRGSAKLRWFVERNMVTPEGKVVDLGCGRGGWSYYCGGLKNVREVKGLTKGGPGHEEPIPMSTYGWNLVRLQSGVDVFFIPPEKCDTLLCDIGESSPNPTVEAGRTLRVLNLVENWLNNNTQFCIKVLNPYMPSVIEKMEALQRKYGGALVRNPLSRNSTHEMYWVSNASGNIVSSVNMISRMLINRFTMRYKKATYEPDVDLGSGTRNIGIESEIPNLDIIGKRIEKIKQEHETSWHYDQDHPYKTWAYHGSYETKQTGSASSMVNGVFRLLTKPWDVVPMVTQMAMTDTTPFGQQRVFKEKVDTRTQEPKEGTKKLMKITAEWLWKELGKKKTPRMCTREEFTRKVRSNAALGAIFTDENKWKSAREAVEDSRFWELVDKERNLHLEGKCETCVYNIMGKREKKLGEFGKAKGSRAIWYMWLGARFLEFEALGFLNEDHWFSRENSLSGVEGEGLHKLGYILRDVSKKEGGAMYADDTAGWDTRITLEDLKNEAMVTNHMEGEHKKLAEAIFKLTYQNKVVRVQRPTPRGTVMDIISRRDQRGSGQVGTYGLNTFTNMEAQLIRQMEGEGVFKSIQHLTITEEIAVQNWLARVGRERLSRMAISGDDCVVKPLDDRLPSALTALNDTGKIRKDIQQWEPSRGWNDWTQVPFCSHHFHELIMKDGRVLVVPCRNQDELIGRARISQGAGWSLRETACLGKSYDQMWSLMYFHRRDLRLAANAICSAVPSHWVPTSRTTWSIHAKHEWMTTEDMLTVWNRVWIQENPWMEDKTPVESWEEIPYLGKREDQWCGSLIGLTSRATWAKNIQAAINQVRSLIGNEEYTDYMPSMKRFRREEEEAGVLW

## CCCOC(=O)Nc1sc2c(c1C(=O)OCC)CCC2
Protein Tat
  IC50: > 100 µM (active)

## CCc1ccc2oc(-c3cccc(N)c3)nc2c1
[1]
  EC50: 0.37 µM (active)
HT-1080
  EC50: > 50 µM (not active)
[2]
  IC50: > 67.5 µM (inactive)
[3]
  EC50: > 67.5 µM (inactive)
[4]
  EC50: > 67.6 µM (inactive)

## Oc1nc2ccccc2n2c(-c3ccccc3)nnc12
[5]
  IC50: > 100 µM (inactive)
[6]
  IC50: > 100 µM (not active)
[7]
  IC50: 41.6 µM (inactive)
[8]
  IC50: 34.4 µM (inactive)
Hexokinase HKDC1
  IC50: 7.52 µM (active)
[9]
  AC50: > 380 µM (inactive)
Protein RecA
  EC50: 12.8 µM (active)
Genome polyprotein
  IC50: 8.26 µM (active)
Protein Tat
  IC50: > 100 µM (active)

## Cc1ccc(C(=O)NC(=S)c2c(C)cc3ccccn23)cc1
[10]
  AC50: 11 µM (active)
[2]
  IC50: > 67.5 µM (inactive)
[3]
  EC50: > 67.5 µM (inactive)

## COc1ccccc1C#Cc1ccc([C@@H]2[C@@H](C#N)N(C(=O)C3CCCC3)[C@H]2CO)cc1
[11]
  AC50: 1.92 µM (active)
[12]
  AC50: 25.2 µM (active)
[13]
  AC50: 2.9 µM (active)
[14]
  AC50: 1.22 µM (active)
[15]
  AC50: > 39 µM (inactive)
[16]
  AC50: 1.39 µM (active)
